In data set [1] the test system is codon-12 point mutation of mutant (activated) H-ras RNA. It is filed as cell-based, human.
Data set [2] concerns RNA complement “Y” strand ribo(3′GAG CAU GGY AAG GCC AGG5′). Briefly: Base-pair specificity: single base-pair mismatches and a bulge (Table 2). It counts as binding. On the procedure:
The ability of the 2′-modified oligonucleotides to hybridize to their complementary RNA or DNA sequences was determined by thermal melting analysis. The RNA complement was synthesized from T7 RNA polymerase and a template-promoter of DNA synthesized with an Applied Biosystems, Inc. 380B RNA species was purified by ion exchange using FPLC (LKB Pharmacia, Inc.). Natural antisense oligonucleotides or those containing 2′-modifications at specific locations were added to either the RNA or DNA complement at stoichiometric concentrations and the absorbance (260 nm) hyperchromicity upon duplex to random coil transition was monitored using a Gilford Response II spectrophotometer. These measurements were performed in a buffer of 10 mM Na-phosphate, pH 7.4, 0.1 mM EDTA, and NaCl to yield an ionic strength of 10 either 0.1 M or 1.0 M. Data was analyzed by a graphic representation of 1/Tm vs ln[Ct], where [Ct] was the total oligonucleotide concentration. From this analysis the thermodynamic parameters were determined. Based upon the information gained concerning the stability of the duplex of heteroduplex formed, the placement of modified pyrimidine into oligonucleotides were assessed for their effects on helix stability.
Base-pair specificity of 2′-deoxy-2′-fluoro modified oligonucleotides with the RNA complement (a “Y” strand) was determined by effecting single base-pair mismatches and a bulge. […] In Table 2, the underlined nucleotides represent nucleotides that include a 2′-deoxy-2′-fluoro substituent.

Data set [3] deals with complementary RNA strand (the sense strand). Description: Thermal melting analysis of 2′-deoxy-2′-fluoro modified oligonucleotides (Table 1). It is filed as binding.
In another data set the test system is ras mRNA. Description: Northern blot analysis of ras expression in T24 cells. Further details: inhibition of ras expression / decrease of ras mRNA: concentration or dose not given beside the values. It counts as cell-based, human. The protocol: The human urinary bladder cancer cell line T24 was obtained from the American Type Culture Collection (Rockville Md.). Cells were grown in McCoy's 5A medium with L-glutamine (GIBCO-BRL, Gaithersburg, Md.), supplemented with 10% heat-inactivated fetal calf serum and 50 U/ml each of penicillin and streptomycin. Cells were seeded on 100 mm plates. When they reached 70% confluency, they were treated with oligonucleotide. Plates were washed with 10 ml prewarmed PBS and 5 ml of OptiMEM (GIBCO) reduced-serum medium containing 2.5 μl DOTMA. Oligonucleotide was then added to the desired concentration. After 4 hours of treatment, the medium was replaced with McCoy's medium. Cells were harvested 48 hours after oligonucleotide treatment and RNA was isolated using a standard CsCl purification method. [Kingston in Current Protocols in Molecular Biology, F. M. Ausubel, R. Brent, R. E. Kingston, D. D. Moore, J. A. Smith, J. G. Seidman and K. Strahl, Eds., John Wiley and Sons, New York.] The human epithelioid carcinoma cell line HeLa 229 was obtained from the American Type Culture Collection (Bethesda, Md.). HeLa cells were maintained as monolayers on 6-well plates in Dulbecco's Modified Eagle's medium (DMEM) supplemented with 10 fetal bovine serum and 100 U/ml penicillin. Treatment with oligonucleotide and isolation of RNA were essentially as described above for T24 cells.
Northern hybridization: 10 μg of each RNA was electrophoresed on a 1.2% agarose/formaldehyde gel and transferred overnight to GeneBind 45 nylon membrane (Pharmacia LKB, Piscataway, N.J.) using standard methods. [Kingston in Current Protocols in Molecular Biology, F. M. Ausubel, R. Brent, R. E. Kingston, D. D. Moore, J. A. Smith, J. G. Seidman and K. Strahl, Eds., John Wiley and Sons, New York.] RNA was UV-crosslinked to the membrane. Double-stranded ^32P-labeled probes were synthesized using the Prime a Gene labeling kit (Promega, Madison Wis.). The ras probe was a SalI-NheI fragment of a cDNA clone of the activated (mutant) H-ras mRNA having a GGC-to-GTC mutation at codon-12. The control probe was G3PDH. Blots were prehybridized for 15 minutes at 68° C. with the QuickHyb hybridization solution (Stratagene, La Jolla, Calif.). The heat-denatured radioactive probe (2.5×10^6 counts/2 ml hybridization solution) mixed with 100 μl of 10 mg/ml salmon sperm DNA was added and the membrane was hybridized for 1 hour at 68° C. The blots were washed twice for 15 minutes at room temperature in 2×SSC/0.1% SDS and once for 30 minutes at 60° C. with 0.1×SSC/0.1%SDS. Blots were autoradiographed and the intensity of signal was quantitated using an ImageQuant PhosphorImager (Molecular Dynamics, Sunnyvale, Calif.). Northern blots were first hybridized with the ras probe, then stripped by boiling for 15 minutes in 0.1×SSC/0.1%SDS and rehybridized with the control G3PDH probe to check for correct sample loading.

Where [4] appears, read: Y = C, mismatch, difference to Watson-Crick.
Setting [5] is: Y = G, mismatch, difference to Watson-Crick.
Where [6] appears, read: Y = None, bulged T/U, difference to Watson-Crick.
The mark [7] stands for this setting: Y = U, mismatch, difference to Watson-Crick.
The mark [8] stands for this setting: G°37, antisense strand duplexed with RNA sense strand.
The mark [9] stands for this setting: difference (delta Tm) to the unmodified strand.
The mark [10] stands for this setting: first Tm column, duplex with RNA sense strand.
Setting [11] is: difference to the unmodified strand.

d = 2'-deoxy (DNA); m = 2'-O-methyl; f = 2'-fluoro

With “3979 (CCACACCGACGGCGCCC; chimeric 2'-O-methyl phosphorothioate, pattern not given here) [Oligonucleotide 3979]”, in data set [1], the “activity at the highest concentration dose” value was “measurable activity” and the “inhibition of ras-luciferase activity” value is on record as “neither of the oligonucleotides having either the one or the three 2′-deoxy-erythro-pentofuranosyl nucleotide subsequences showed significant activity”.
For the substance “deoxy(CUC GUA CCU UUC CGG UCC) (CUCGUACCUUUCCGGUCC; sugars from the 5' end fffdfffffffffddffd, backbone, methylation of C and T or U not given here)”, the “G°37” value in data set [2] (Y = A, Watson-Crick) was -27.80 ± 0.05 kcal/mol; in data set [2] (Y = C, mismatch) it was -21.98 ± 0.28 kcal/mol; in data set [2] (setting [4]), 5.82 ± 0.28 kcal/mol; in data set [2] (Y = G, mismatch) it was -21.69 ± 0.16 kcal/mol; in data set [2] (setting [5]), 6.12 ± 0.17 kcal/mol; in data set [2] (Y = None, bulged T/U), -22.87 ± 0.27 kcal/mol. The “G°37” value was 4.94 ± 0.27 kcal/mol in data set [2] (setting [6]); -18.68 ± 0.15 kcal/mol in data set [2] (Y = U, mismatch); 9.13 ± 0.16 kcal/mol in data set [2] (setting [7]). For the same substance, the “Tm (° C.)” value is 81.6 °C in data set [2] (Y = A, Watson-Crick); 73.8 °C in data set [2] (Y = C, mismatch); −7.8 °C in data set [2] (setting [4]); 77.8 °C in data set [2] (Y = G, mismatch); −3.8 °C in data set [2] (setting [5]); 75.5 °C in data set [2] (Y = None, bulged T/U). For the same substance, the “Tm (° C.)” value in data set [2] (setting [6]) is −6.2 °C; in data set [2] (Y = U, mismatch), 73.6 °C; in data set [2] (setting [7]), −8.0 °C. For the same substance, the “specificity of duplex formation with the RNA complement” value in data set [2] (versus like-sequenced unmodified oligonucleotide) is “greater specificity than a like-sequenced unmodified oligonucleotide”.
With “ps(CGA CTA TGC AAG TAC) [reference compound]”, in data set [3] (setting [8]), the “G°37” value is -7.58 ± 0.06 kcal/mol. Further, the “Tm (° C.)” value was −11.2 °C in data set [3] (setting [9]) and 33.9 °C in data set [3] (setting [10]).
On to “C^MC^MA^M C^MA^MC^M CdGdAd CdGdG^M C^MG^MC^M C^MC^M [Oligonucleotide 3980]”, for which the “inhibition of ras expression in T24 cells” value with ras mRNA (result in words) is “inhibited ras expression”.
In the case of “CsCsAsCsAsCsCsGsAoCsGsGsCsGsCsCsC [Oligonucleotide 4248]”, the “effect on ras expression (ras-luciferase reporter system), chimeric backbone-modified oligonucleotides” value in data set [1] is reported as “just as active as a full P═S molecule”.
In the case of “deoxy(CTC GTA CCT TTC CGG TCC) (CTCGTACCTTTCCGGTCC; DNA, backbone not given here) [reference compound]”, the “G°37” value in data set [2] (Y = A, Watson-Crick) is -14.57 ± 0.13 kcal/mol; in data set [2] (Y = C, mismatch) it was -12.78 ± 0.11 kcal/mol; in data set [2] (setting [4]), 1.79 ± 0.17 kcal/mol; in data set [2] (Y = G, mismatch), -16.39 ± 0.25 kcal/mol; in data set [2] (setting [5]) it was -1.82 ± 0.28 kcal/mol; in data set [2] (Y = None, bulged T/U), -14.86 ± 0.35 kcal/mol. For the same substance, the “G°37” value is -0.284 ± 0.37 kcal/mol in data set [2] (setting [6]); -13.48 ± 0.17 kcal/mol in data set [2] (Y = U, mismatch); 1.09 ± 0.22 kcal/mol in data set [2] (setting [7]). For the same substance, the “Tm (° C.)” value in data set [2] (Y = A, Watson-Crick) is 61.6 °C; in data set [2] (Y = C, mismatch), 54.4 °C; in data set [2] (setting [4]) it was −7.2 °C; in data set [2] (Y = G, mismatch), 61.7 °C; in data set [2] (setting [5]) it was 0.1 °C; in data set [2] (Y = None, bulged T/U), 59.4 °C. Besides, the “Tm (° C.)” value in data set [2] (setting [6]) was −2.2 °C; in data set [2] (Y = U, mismatch), 55.9 °C; in data set [2] (setting [7]) it was −5.7 °C.
As to “CTTATATTCCGTCATCGCTC [Oligonucleotide 2502]”, the “inhibition of ras expression / decrease of ras mRNA” value in the data set on ras mRNA came to 26%.
The same measure, in the same setting: under “4998 (CTTATATTCCGTCATCGCTC; sugars from the 5' end m6 d7 m7, all phosphorothioate, methylation of C and T or U not given here) [Oligonucleotide 4998]” stands 84%.
For the substance ps(CGA CUA UGC AAG UAC), the “G°37” value was -15.90 ± 0.34 kcal/mol in data set [3] (setting [8]) and -8.32 ± 0.34 kcal/mol in data set [3] (setting [11]). The “Tm (° C.)/subst.” value in data set [3] (delta Tm per 2′-fluoro substitution) is “+2.5 °C”. Further, the figures for the “Tm (° C.)” value in data set [3] (setting [9]) and in data set [3] (setting [10]) were “+27.0 °C” and 60.9 °C, respectively.
On to “3980 (CCACACCGACGGCGCCC; chimeric 2'-O-methyl phosphorothioate, pattern not given here) [Oligonucleotide 3980]”, for which, in data set [1], the “inhibition of ras-luciferase activity” value is given as “next greatest inhibition”. The “inhibition of ras expression / decrease of ras mRNA” value in the data set on ras mRNA worked out at 61%.
With “CTC GTA CCT TCC GGT CC (CTCGTACCTTCCGGTCC; listed as DNA, chemistry not fully specified) [reference compound]”, in data set [3] (setting [8]), the “G°37” value was -14.57 ± 0.13 kcal/mol. Moreover, in data set [3] (setting [10]), the “Tm (° C.)” value worked out at 61.6 °C.
Take “3975 (CCACACCGACGGCGCCC; chimeric 2'-O-methyl phosphorothioate, pattern not given here) [Oligonucleotide 3975]”: in data set [1], the “inhibition of ras-luciferase activity” value is listed as “neither of the oligonucleotides having either the one or the three 2′-deoxy-erythro-pentofuranosyl nucleotide subsequences showed significant activity”.
As for “CUC GUA CCU UCC GGU CC (CUCGUACCUUCCGGUCC; 2'-deoxy-2'-fluoro A, T, C, chemistry not fully specified)”, the “G°37” value is -27.81 ± 0.05 kcal/mol in data set [3] (setting [8]) and -13.24 ± 0.14 kcal/mol in data set [3] (setting [11]). Also, the “Tm (° C.)” value in data set [3] (setting [9]) was “+1.4 °C”; in data set [3] (setting [10]), 81.6 °C.
For the substance “oligonucleotide with the 2′-O-propyl diester flanking regions: SEQ ID NO: 1, phosphorothioate in the 7-base deoxy gap only, phosphodiester 2′-O-propyl flanking regions (DNA CCACACCGACGGCGCCC; 2'-O-propyl flanks, phosphorothioate gap, chemistry not fully specified)”, the “effect on ras expression (ras-luciferase reporter system), chimeric backbone-modified oligonucleotides” value in data set [1] is on record as “able to inhibit ras expression”.
Take “3984 (CCACACCGACGGCGCCC; chimeric 2'-O-methyl phosphorothioate, pattern not given here) [Oligonucleotide 3984]”: the “inhibition of ras-luciferase activity” value in data set [1] is “greater inhibition of ras-luciferase activity than did oligonucleotide 2570”. Also, the “inhibition of ras expression / decrease of ras mRNA” value with ras mRNA is 81%.

The values above are taken from patent US20030187240A1, “2' -modified oligonucleotides” (ISIS Pharmaceuticals, Inc., priority 1990, published 2003).
